From patent publication US20230099739A1, “JAK KINASE INHIBITOR AND PREPARATION AND APPLICATION THEREOF” (MINGHUI PHARMACEUTICAL (SHANGHAI) LIMITED, priority 2020, published 2023)

Columns and labels:
TYK2 = TYK2 (Homo sapiens, UniProt P29597); experiment: Caliper mobility shift kinase assay, TYK2; format: biochemical; details: 1 mM ATP concentration
Protocol: (§1) The in vitro inhibitory effect of compounds on JAK1, JAK2, JAK3 or TYK2 kinase was detected by Caliper mobility shift assay. Compounds to be tested were dissolved in DMSO, and prepared into 10 mM stock solutions. Stock solutions of the compounds were prepared into 50× working solutions (10 concentrations in total) through gradient dilution using DMSO, and each concentration of working solution was transferred to an Echo® master plate. The Echo® non-contact nanoliter sonic pipetting system was used to transfer […] of compound solution or DMSO of the corresponding concentration from the master plate to the 384-well reaction plate. Then, 10 μL of 2.5× kinase solution was added to the 384-well reaction plate. After 10 minutes of incubation at room temperature, 10 μL of mixed solution of 2.5×FAM-labeled polypeptide and ATP (final ATP concentration was 1 mM) was added. 30 μL of stop reagent was added, detected on Caliper, and the conversion value was calculated, i.e. the height of the product peak divided by the sum of the heights of the substrate and product peaks. […] Percent inhibition=(max−conversion)/(max−min)×100, wherein “max” represents the conversion reading for the DMSO control and “min” represents the conversion reading for the low value control.

JAK1 = JAK1 (Homo sapiens, UniProt P23458); experiment: Caliper mobility shift kinase assay, JAK1; format: biochemical; details: 1 mM ATP concentration
Protocol: as §1

JAK2 = JAK2 (Homo sapiens, UniProt O60674); experiment: Caliper mobility shift kinase assay, JAK2; format: biochemical; details: 1 mM ATP concentration
Protocol: as §1

JAK3 = target: T1, JAK3 (Homo sapiens, UniProt P52333); experiment: Caliper mobility shift kinase assay, JAK3; format: biochemical; details: 1 mM ATP concentration
T1 sequence (P52333 1-1124): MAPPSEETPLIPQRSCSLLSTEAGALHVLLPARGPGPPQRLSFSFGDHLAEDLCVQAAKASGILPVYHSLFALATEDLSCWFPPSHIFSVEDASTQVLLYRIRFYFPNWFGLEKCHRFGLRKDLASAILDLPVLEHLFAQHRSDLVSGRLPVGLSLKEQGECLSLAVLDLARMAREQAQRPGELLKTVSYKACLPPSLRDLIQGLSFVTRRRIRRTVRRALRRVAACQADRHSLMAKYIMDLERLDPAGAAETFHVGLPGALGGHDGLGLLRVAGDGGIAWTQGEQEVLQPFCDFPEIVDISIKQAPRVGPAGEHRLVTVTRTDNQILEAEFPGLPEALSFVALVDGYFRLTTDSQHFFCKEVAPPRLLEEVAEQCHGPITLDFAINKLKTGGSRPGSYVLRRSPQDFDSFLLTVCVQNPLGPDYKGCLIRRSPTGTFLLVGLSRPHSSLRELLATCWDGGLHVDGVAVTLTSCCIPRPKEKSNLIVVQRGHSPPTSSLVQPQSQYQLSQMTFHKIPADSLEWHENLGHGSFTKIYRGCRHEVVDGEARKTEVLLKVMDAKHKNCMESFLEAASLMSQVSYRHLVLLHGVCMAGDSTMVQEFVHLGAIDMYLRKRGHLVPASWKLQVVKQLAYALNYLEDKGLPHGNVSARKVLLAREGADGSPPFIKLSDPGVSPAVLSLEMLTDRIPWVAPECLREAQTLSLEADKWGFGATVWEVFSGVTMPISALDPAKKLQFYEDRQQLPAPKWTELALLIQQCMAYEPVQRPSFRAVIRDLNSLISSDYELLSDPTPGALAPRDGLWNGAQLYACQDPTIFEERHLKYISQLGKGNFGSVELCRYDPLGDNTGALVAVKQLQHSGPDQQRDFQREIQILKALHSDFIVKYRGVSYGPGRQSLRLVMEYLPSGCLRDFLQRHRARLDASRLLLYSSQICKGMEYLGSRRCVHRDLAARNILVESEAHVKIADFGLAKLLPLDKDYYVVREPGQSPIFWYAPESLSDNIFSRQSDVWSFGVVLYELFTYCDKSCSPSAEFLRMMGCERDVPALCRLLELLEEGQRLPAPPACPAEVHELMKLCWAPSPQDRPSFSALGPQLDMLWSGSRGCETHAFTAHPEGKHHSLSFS
Protocol: as §1

Ba/F3-TEL-TYK2 cells = experiment: CellTiter-Glo proliferation of Ba/F3-TEL-TYK2 cells; format: cell-based; details: Mus musculus, murine B lymphocyte BaF3 with TEL-human TYK2 kinase domain
Excerpt: (§2) In murine B lymphocytes BaF3, recombinant genes (including TEL and human JAK1, TYK2, JAK2, JAK3 kinase domains) were transferred by using genetic engineering technology, in which TEL could promote phosphorylation of TEL-JAK1 or TEL-TYK2 kinase dimer and continuously activate, thus allowing cells to grow dependent on the activity of this recombinant kinase. […] CellTiter-Glo method was used to detect the proliferation of genetically engineered cell lines Ba/F3-TEL-JAK1, Ba/F3-TEL-TYK2, Ba/F3-TEL-JAK2, and Ba/F3-TEL-JAK3 which was cultured in vitro. Graphpad 7.0 was used to fit curves and IC 50 values were calculated.

Ba/F3-TEL-JAK1 cells = experiment: CellTiter-Glo proliferation of Ba/F3-TEL-JAK1 cells; format: cell-based; details: Mus musculus, murine B lymphocyte BaF3 with TEL-human JAK1 kinase domain
Excerpt: as §2

Ba/F3-TEL-JAK2 cells = experiment: CellTiter-Glo proliferation of Ba/F3-TEL-JAK2 cells; format: cell-based; details: Mus musculus, murine B lymphocyte BaF3 with TEL-human JAK2 kinase domain
Excerpt: as §2

Ba/F3-TEL-JAK3 cells = experiment: CellTiter-Glo proliferation of Ba/F3-TEL-JAK3 cells; format: cell-based; details: Mus musculus, murine B lymphocyte BaF3 with TEL-human JAK3 kinase domain
Excerpt: as §2

Chain of JAK1 (P23458 whole entry): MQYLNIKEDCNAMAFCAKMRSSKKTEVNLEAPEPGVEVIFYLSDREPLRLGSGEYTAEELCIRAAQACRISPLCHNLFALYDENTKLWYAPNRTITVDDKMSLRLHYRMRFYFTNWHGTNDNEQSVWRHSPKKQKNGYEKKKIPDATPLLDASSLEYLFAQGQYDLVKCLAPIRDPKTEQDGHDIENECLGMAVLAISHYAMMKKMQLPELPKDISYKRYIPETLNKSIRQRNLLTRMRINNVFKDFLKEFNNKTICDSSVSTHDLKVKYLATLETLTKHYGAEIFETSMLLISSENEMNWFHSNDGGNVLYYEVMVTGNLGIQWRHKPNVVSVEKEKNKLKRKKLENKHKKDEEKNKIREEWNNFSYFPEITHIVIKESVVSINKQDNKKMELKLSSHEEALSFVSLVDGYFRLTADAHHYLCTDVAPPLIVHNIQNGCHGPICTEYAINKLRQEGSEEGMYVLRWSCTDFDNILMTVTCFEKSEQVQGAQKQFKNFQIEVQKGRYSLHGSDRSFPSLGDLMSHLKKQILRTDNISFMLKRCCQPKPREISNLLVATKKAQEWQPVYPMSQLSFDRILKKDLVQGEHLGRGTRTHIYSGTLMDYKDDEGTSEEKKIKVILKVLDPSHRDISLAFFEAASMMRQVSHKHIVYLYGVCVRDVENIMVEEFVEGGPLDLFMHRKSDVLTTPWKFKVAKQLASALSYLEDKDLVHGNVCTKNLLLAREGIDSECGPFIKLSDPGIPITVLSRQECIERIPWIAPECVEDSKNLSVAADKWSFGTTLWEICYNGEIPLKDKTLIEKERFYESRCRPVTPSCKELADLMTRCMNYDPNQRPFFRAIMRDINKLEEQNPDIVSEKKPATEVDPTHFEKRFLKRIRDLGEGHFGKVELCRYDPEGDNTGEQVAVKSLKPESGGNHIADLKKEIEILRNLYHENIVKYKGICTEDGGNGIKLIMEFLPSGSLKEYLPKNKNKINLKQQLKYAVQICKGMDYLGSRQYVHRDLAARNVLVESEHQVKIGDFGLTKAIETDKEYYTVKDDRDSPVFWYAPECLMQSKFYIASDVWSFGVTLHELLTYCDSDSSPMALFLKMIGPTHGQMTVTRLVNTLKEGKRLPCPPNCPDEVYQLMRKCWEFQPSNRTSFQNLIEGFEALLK
Chain of TYK2 (P29597 whole entry): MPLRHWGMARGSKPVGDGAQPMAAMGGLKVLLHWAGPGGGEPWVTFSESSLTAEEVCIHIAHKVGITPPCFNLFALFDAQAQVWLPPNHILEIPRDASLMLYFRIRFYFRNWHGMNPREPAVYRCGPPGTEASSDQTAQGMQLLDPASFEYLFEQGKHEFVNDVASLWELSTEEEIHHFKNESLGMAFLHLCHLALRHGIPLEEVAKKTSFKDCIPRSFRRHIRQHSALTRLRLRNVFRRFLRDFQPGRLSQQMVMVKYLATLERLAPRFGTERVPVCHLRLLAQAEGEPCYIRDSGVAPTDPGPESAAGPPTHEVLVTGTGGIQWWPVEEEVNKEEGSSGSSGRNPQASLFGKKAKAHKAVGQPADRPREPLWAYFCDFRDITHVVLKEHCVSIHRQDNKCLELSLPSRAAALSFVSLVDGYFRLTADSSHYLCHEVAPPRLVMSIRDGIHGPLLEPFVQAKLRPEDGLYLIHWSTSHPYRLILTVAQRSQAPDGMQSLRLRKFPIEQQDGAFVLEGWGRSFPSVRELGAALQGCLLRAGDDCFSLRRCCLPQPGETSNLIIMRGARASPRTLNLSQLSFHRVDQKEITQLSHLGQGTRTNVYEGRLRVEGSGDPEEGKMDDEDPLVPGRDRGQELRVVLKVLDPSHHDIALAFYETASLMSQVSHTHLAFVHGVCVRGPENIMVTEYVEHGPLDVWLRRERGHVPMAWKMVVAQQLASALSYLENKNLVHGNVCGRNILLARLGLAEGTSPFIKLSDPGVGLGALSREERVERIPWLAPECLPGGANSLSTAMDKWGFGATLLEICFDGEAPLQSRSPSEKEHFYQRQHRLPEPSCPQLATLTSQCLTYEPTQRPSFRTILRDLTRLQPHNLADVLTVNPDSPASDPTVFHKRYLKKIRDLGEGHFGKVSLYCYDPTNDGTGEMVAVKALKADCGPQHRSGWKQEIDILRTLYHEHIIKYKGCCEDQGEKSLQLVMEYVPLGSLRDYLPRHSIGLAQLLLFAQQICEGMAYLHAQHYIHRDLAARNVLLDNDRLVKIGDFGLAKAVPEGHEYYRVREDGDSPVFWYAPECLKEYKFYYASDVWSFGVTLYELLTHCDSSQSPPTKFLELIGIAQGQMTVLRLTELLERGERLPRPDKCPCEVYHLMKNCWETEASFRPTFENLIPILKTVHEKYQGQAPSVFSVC
Chain of JAK2 (O60674 whole entry): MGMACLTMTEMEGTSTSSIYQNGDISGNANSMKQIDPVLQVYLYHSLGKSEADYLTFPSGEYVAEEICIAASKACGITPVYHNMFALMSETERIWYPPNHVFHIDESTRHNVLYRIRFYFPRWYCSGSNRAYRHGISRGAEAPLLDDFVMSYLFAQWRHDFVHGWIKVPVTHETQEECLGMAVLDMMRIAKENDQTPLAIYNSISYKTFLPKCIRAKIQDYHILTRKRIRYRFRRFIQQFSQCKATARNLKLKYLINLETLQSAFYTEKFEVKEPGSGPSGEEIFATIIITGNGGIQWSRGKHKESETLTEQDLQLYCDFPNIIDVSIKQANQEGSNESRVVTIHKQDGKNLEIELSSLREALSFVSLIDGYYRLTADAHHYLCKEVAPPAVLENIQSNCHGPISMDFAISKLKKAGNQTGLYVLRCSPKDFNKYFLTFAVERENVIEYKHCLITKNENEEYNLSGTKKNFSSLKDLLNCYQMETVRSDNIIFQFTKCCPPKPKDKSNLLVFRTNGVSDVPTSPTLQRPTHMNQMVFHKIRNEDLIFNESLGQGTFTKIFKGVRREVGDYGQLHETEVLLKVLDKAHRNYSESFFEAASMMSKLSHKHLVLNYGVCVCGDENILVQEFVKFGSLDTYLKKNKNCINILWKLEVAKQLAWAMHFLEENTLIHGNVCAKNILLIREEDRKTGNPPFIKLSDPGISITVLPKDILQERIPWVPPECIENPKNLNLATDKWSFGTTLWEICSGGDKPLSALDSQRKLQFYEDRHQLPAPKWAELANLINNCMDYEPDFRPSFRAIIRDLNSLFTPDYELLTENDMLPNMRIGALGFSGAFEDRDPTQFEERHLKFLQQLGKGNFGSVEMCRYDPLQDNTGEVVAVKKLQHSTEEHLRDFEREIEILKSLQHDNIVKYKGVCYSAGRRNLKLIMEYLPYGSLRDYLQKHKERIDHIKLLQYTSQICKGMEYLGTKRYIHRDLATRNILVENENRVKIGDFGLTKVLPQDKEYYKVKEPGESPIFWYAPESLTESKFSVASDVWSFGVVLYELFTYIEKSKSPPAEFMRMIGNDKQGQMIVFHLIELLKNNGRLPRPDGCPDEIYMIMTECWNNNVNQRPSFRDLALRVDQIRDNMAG

Compound	IC50 (TYK2)	IC50 (JAK1)	IC50 (JAK2)	IC50 (JAK3)	IC50 (Ba/F3-TEL-TYK2 cells)	IC50 (Ba/F3-TEL-JAK1 cells)	IC50 (Ba/F3-TEL-JAK2 cells)	IC50 (Ba/F3-TEL-JAK3 cells)
Cn1cc(Nc2nccc(N3CC4CSC(C3)N4C(=O)[C@@H]3CC3(F)F)n2)cn1 (stereo partly shown) [Example 1]	4.2 nM	32 nM	27 nM	3470 nM	111 nM	31 nM	87 nM	3690 nM
O=C([C@@H]1CC1(F)F)N1[C@H]2CS[C@@H]1CN(c1ccnc(Nc3cnn(CCO)c3)n1)C2 [Example 2]	1.7 nM	10 nM	1.4 nM	2270 nM	192 nM	314 nM	173 nM	8640 nM
O=C([C@@H]1CC1(F)F)N1[C@H]2CS[C@@H]1CN(c1ccnc(Nc3cnn(C4(CO)CC4)c3)n1)C2 [Example 3]	2.9 nM	107 nM	–	–	556 nM	56 nM	427 nM	> 10000 nM
